The test system of series [1] is SUDHL10. Nature of the series: Induction of cytotoxicity (Assay 6), SUDHL10. To be noted: read-out: Cytotox SUDHL10 [M] (median) IC50, CellTiter-Glo, 5 hours, SUDHL10. (ATP-based viability assays read luminescence as a measure of living cells.)
For series [2], the system named is SUDHL10. Nature of the series: Induction of caspase-3/7 activity (Assay 4), SUDHL10. The series is classed as cell-based. To be noted: caspase-3/7 induction, median. Put shortly: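 Caspase-3/7 activity measured by Caspase-Glo 3/7 luminescence in DLBCL cells after 3 h compound treatment at 37 °C. Medium-only background subtracted. EC50 fitted with C0 fixed at 1 and top set to the reference compound's plateau/max induction.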

The next series deals with BCL-XL (Homo sapiens (Human), UniProt Q07817). Kind of series: Protein-protein interaction assay BCL-XL/Bad BH3 peptide (BCL-XL assay, TR-FRET). The series is classed as binding. To be noted: His-BCL-XL / Bad BH3 peptide, median. As for the experimental part:
Assay 2 Protein-Protein Interaction Assay: BCL-XL/Bad BH3 Peptide (BCL-XL Assay)
The dose-dependent inhibition by the compounds described in this invention of the interaction between BCL-XL and the BH3 domain of Bad (both human) was determined using a steady state binding competition assay with time-resolved fluorescence energy transfer (TR-FRET) readout. For that purpose BCL-XL (amino acids 1-212, C-terminal fused to a hexahistidine (6×His) tag (SEQ ID 3) and a synthetic Bad BH3-derived peptide of sequence Biotin-PEG2-PEG2-NLWAAQRYGRELRR-Nle-SDEFVDSFKK-amide (SEQ ID 4) served as protein receptor and tracer ligand respectively. The recombinant BCL-XL protein (expressed in E. coli) was purchased from BPS Bioscience (San Diego, Calif., USA). The Bad BH3-derived peptide can be obtained from e.g. Biosyntan (Berlin, Germany).
In the assay 11 different concentrations of each compound (0.1 nM, 0.33 nM, 1.1 nM, 3.8 nM, 13 nM, 44 nM, 0.15 μM, 0.51 μM, 1.7 μM, 5.9 μM and 20 μM) were typically measured as duplicates in the same microtiter plate. For that, 100-fold concentrated DMSO solutions were prepared by serial dilutions (1:3.4) of a 2 mM stock solution in a clear, 384-well microtiter plate (Greiner Bio-One, Frickenhausen, Germany). From there, 50 nl were transferred in a dark test plate (Greiner Bio-One, Frickenhausen, Germany). The assay was initiated by addition of 2 μl of a 2.5-fold concentrated His-BCL-XL solution (usually for a 1 nM end concentration in 5 μl reaction volume) in aqueous assay buffer [50 mM Tris/HCl pH 7, 100 mM sodium chloride (NaCl), 50 mM potassium fluoride (KF), 0.005% Tween-20, 2 mM DTT, 0.1% bovine gamma globulin (BGG)] to the compounds in the assay plate. This was followed by a 10-minute incubation step at 22° C. for pre-equilibration of the putative complex between His-BCL-XL and the compounds. After that, 3 μl of a 1.67-fold concentrated solution (in assay buffer) consisting of Bad BH3-derived peptide (1 nM end concentration) and TR-FRET detection reagents [1.67 nM anti-His-Eu cryptate and 1.67 nM streptavidin-XL665 (both from Cisbio Bioassays, Codolet, France)], were added.
The mixture was incubated in the dark for one hour at 22° C. and then overnight at 4° C. The formation of BCL-XL/Bad complexes was determined by measuring the resonance energy transfer of the anti-His- Eu-cryptate antibody to the streptavidin-XL665 present in the reaction. For that purpose, the fluorescence emission at 620 nm and 665 nm after excitation at 330-350 nm was measured in a TR-FRET measuring instrument, for instance a Rubystar or a Pherastar (both from BMG Lab Technologies, Offenburg, Germany) or a Viewlux (Perkin-Elmer). The ratio of the emission at 665 nm and at 622 nm was used as indicator of the amount of BCL-XL/Bad complexes present.
The resulting data (ratio) were normalized, taking 0% inhibition as the mean value of control measurements (usually 32 data points) where all reagents were included. In this case 50 nl DMSO were used instead of compounds. A 100% inhibition corresponded to the mean value of control measurements (usually 32 data points) where all reagents except BCL-XL were included. IC50 values were determined by regression analysis based on a 4 parameter equation (minimum, maximum, IC50, Hill; Y=Max+(Min−Max)/(1+(X/IC50)^HiII) using the Screener Software (Genedata).
Background: TR-FRET usually uses a lanthanide donor and a delayed reading to cut background.

Structures can show the parent of a compound that is named as a salt. Where two headings read alike, the source gives them in different places.

Sequence of BCL-XL (Q07817 other isoform, or with tags, fused parts or gaps): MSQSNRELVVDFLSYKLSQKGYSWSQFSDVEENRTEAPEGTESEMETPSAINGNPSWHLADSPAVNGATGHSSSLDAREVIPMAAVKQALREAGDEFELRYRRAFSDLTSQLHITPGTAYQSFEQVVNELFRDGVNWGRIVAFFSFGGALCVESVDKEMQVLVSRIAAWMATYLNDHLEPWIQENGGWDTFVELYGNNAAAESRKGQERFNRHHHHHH

Broadly, the IC50 is the concentration that inhibits the measured activity by half. By EC50 is commonly meant the concentration at which the effect is half-maximal. Low values mean higher potency in that assay, high ones lower potency in that assay. With `Cc1c2c(nn1C)CN(CCN1CCOCC1)S(=O)(=O)CCCn1c(C(=O)O)c(CCCOc3cccc4ccccc34)c3cccc-2c31` (racemic) [Example 1, (rac)-2,3-Dimethyl-14-[2-(morpholin-4-yl)ethyl]-7-{3-[(naphthalen-1-yl)oxy]propyl}-13,13-dioxo-10,11,12,13,14,15-hexahydro-2H-13λ^6-pyrazolo[3′,4′:4,5][1,2,8]thiadiazacycloundecino-[6,7,8-hi]indole-8-carboxylic acid], the IC50 with SUDHL10 [1] (Homo sapiens, SU-DHL10, 5 h) is 1.3e-05 M; at BCL-XL, > 20 µM. Further, the EC50 in the series with SUDHL10 [2] (Homo sapiens, SU-DHL10, 3 h) is 14 µM.

For the compound `CCc1c2c(nn1C)CN(C)S(=O)(=O)CCCn1c(C(=O)O)c(CCCOc3cccc4c3CCCC4)c3ccc(F)c-2c31` (racemic) [Example 34, (rac)-12-Ethyl-13-fluoro-8,11-dimethyl-1-(3-((5,6,7,8-tetrahydronaphthalen-1-yl)oxy)propyl)-5,6,9,11-tetrahydro-4H,8H-pyrazolo[3′,4′:4,5][1]thia[2,8]diazacycloundecino[6,7,8-hi]indole-2-carboxylic acid 7,7-dioxide], the concentration for half-maximal inhibition (IC50) was 2.4e-06 M with SUDHL10 [1] (Homo sapiens, SU-DHL10, 5 h) and > 20 µM on BCL-XL. Further, in the series on SUDHL10 [2] (Homo sapiens, SU-DHL10, 3 h), the half-maximal effective concentration (EC50) was determined as 3.6 µM.

Regarding `Cc1c2c(nn1C)C(N1CCOCC1)CCN(C)S(=O)(=O)CCCn1c(C(=O)O)c(CCCOc3cccc4cc(F)ccc34)c3ccc(Cl)c-2c31` (racemic) [Example 47, (rac)-15-chloro-1-(3-((6-fluoronaphthalen-1-yl)oxy)propyl)-8,13,14-trimethyl-11-(rac)-morpholino-5,6,9,10,11,13-hexahydro-4H,8H-pyrazolo[3′,4′:6,7][1]thia[2,10]diazacyclotridecino[8,9,10-hi]indole-2-carboxylic acid 7,7-dioxide (Mixture of Stereoisomers)], the IC50 is 3.4e-07 M with SUDHL10 [1] (Homo sapiens, SU-DHL10, 5 h) and > 20 µM against BCL-XL. This compound registered a concentration for a half-maximal effect (EC50) in the series on SUDHL10 [2] (Homo sapiens, SU-DHL10, 3 h) of 0.32 µM.

On to `Cc1c2c(nn1C)C(CCN1CCOCC1)N(C)S(=O)(=O)CCCn1c(C(=O)O)c(CCCOc3cccc4cc(F)ccc34)c3ccc(Cl)c-2c31` (racemic) [Example 48, (rac)-4-chloro-7-{3-[(6-fluoro-1-naphthyl)oxy]propyl}-2,3,14-trimethyl-15-(rac)-[2-(morpholin-4-yl)ethyl]-11,12,14,15-tetrahydro-2H,10H-pyrazolo[3′,4′:4,5][1,2,8]thiadiazacycloundecino[6,7,8-hi]indole-8-carboxylic acid 13,13-dioxide (Mixture of Stereoisomers)], for which the IC50 in the series on SUDHL10 [1] was 1.2e-08 M; on BCL-XL, > 20 µM. In the series on SUDHL10 [2] (3 hours), this compound registered an EC50 of 0.0097 µM.

For `COc1ccc(CN2Cc3nn(C)c(C)c3-c3c(Cl)ccc4c(CCCOc5cccc6cc(F)ccc56)c(C(=O)O)n(c34)CCCS2(=O)=O)c(OC)c1` (racemic) [Example 49, (rac)-4-chloro-14-(2,4-dimethoxybenzyl)-7-{3-[(6-fluoro-1-naphthyl)oxy]propyl}-2,3-dimethyl-11,12,14,15-tetrahydro-2H,10H-pyrazolo[3′,4′:4,5][1,2,8]thiadiazacycloundecino[6,7,8-hi]indole-8-carboxylic acid 13,13-dioxide], the concentration for half-maximal inhibition (IC50) in the series on SUDHL10 [1] (Homo sapiens, SU-DHL10, 5 h) is 2.2e-07 M; at BCL-XL, > 20 µM. The compound further had a concentration for a half-maximal effect (EC50) in the series with SUDHL10 [2] (Homo sapiens, SU-DHL10, 3 h) of 0.27 µM.

Regarding `Cc1c2c(nn1C)CNS(=O)(=O)CCCn1c(C(=O)O)c(CCCOc3cccc4cc(F)ccc34)c3ccc(Cl)c-2c31` (racemic) [Example 50, (rac)-4-chloro-7-{3-[(6-fluoro-1-naphthyl)oxy]propyl}-2,3-dimethyl-11,12,14,15-tetrahydro-2H,10H-pyrazolo[3′,4′:4,5][1,2,8]thiadiazacycloundecino[6,7,8-hi]indole-8-carboxylic acid 13,13-dioxide], the IC50 in the series with SUDHL10 [1] (Homo sapiens, SU-DHL10, 5 h) was 3.8e-06 M; on BCL-XL, > 20 µM. In the series on SUDHL10 [2] (Homo sapiens, SU-DHL10, 3 h), this compound showed a concentration giving a half-maximal response (EC50) of 2.8 µM.

In the case of `CCc1c2c(nn1C)CN(C1CC1)S(=O)(=O)CCCn1c(C(=O)O)c(CCCOc3cccc4cc(F)ccc34)c3ccc(Cl)c-2c31` (racemic) [Example 53, (rac)-4-chloro-14-cyclopropyl-3-ethyl-7-{3-[(6-fluoro-1-naphthyl)oxy]propyl}-2-methyl-11,12,14,15-tetrahydro-2H,10H-pyrazolo[3′,4′:4,5][1,2,8]thiadiazacycloundecino[6,7,8-hi]indole-8-carboxylic acid 13,13-dioxide], the IC50 in the series on SUDHL10 [1] turned out to be 9e-07 M; at BCL-XL, 16 µM. It took 0.77 µM to reach a half-maximal effect with SUDHL10 [2] (3 hours) (EC50).

`Cc1c2c(nn1C)CNS(=O)(=O)CCCn1c(C(=O)O)c(CCCOc3cccc4cc(F)ccc34)c3ccc(Cl)c-2c31` (single isomer, unassigned; enantiomer 1) [Example 51, 4-chloro-7-{3-[(6-fluoronaphthalen-1-yl)oxy]propyl}-2,3-dimethyl-13,13-dioxo-10,11,12,13,14,15-hexahydro-2H-13lambda^6-pyrazolo[3′,4′:4,5][1,2,8]thiadiazacycloundecino[6,7,8-hi]indole-8-carboxylic acid (Enantiomer 1)]: the IC50 with SUDHL10 [1] is 9.8e-07 M; at BCL-XL, > 20 µM. The compound also returned an EC50 in the series with SUDHL10 [2] (3 hours) of 0.49 µM.

As for `Cc1c2c(nn1C)CN(CCN1CCOCC1)S(=O)(=O)CCCn1c(C(=O)O)c(CCCOc3cccc4ccccc34)c3cccc-2c31` (single isomer, unassigned; enantiomer 2) [Example 3, 2,3-Dimethyl-14-[2-(morpholin-4-yl)ethyl]-7-{3-[(naphthalen-1-yl)oxy]propyl}-13,13-dioxo-10,11,12,13,14,15-hexahydro-2H-13λ^6-pyrazolo[3′,4′:4,5][1,2,8]thiadiazacycloundecino-[6,7,8-hi]indole-8-carboxylic acid-N-ethylethanamine salt (Enantiomer 2)], the values for the half-maximal inhibitory concentration (IC50) in the series on SUDHL10 [1] and at BCL-XL were > 3.3e-05 M and > 20 µM, respectively. For the same compound, the EC50 with SUDHL10 [2] (3 hours) is > 33 µM.

Turning to `Cc1c2c(nn1C)CN(C)S(=O)(=O)CCCn1c(C(=O)O)c(CCCOc3cccc4ccccc34)c3ccc(Cl)c-2c31` (single isomer, unassigned; enantiomer 2) [Example 6, 4-Chloro-2,3,14-trimethyl-7-{3-[(naphthalen-1-yl)oxy]propyl}-13,13-dioxo-10,11,12,13,14,15-hexahydro-2H-13λ^6-pyrazolo[3′,4′:4,5][1,2,8]thiadiazacycloundecino[6,7,8-hi]indole-8-carboxylic acid-N-ethylethanamine salt (Enantiomer 2)], the IC50 turned out to be 1.7e-05 M in the series on SUDHL10 [1] and 18 µM against BCL-XL. For the same compound, in the series on SUDHL10 [2] (3 hours), the midpoint of the response, the EC50, lay at 14 µM.

As to `CCc1c2c(nn1C)CN(CCN1CCOCC1)S(=O)(=O)CCCn1c(C(=O)O)c(CCCOc3cccc4cc(F)ccc34)c3ccc(Cl)c-2c31` [Example 77, (rac)-13-chloro-12-ethyl-1-(3-((6-fluoronaphthalen-1-yl)oxy)propyl)-11-methyl-8-(2-morpholinoethyl)-5,6,9,11-tetrahydro-4H,8H-pyrazolo[3′,4′:4,5][1]thia[2,8]diazacycloundecino[6,7,8-hi]indole-2-carboxylic acid 7,7-dioxide], the IC50 in the series on SUDHL10 [1] (Homo sapiens, SU-DHL10, 5 h) is 1.3e-05 M; against BCL-XL it was > 20 µM. In the series on SUDHL10 [2] (Homo sapiens, SU-DHL10, 3 h), this compound showed an EC50 of 14 µM.

Values taken from patent US11401278B2, “Macrocyclic indole derivatives” (The Broad Institute, Inc., priority 2017, dated 2022).
